Reference: publication PMC5993284, “Peptide inhibitors of the anaphase promoting-complex that cause sensitivity to microtubule poison” (PLoS ONE, 2018)
Ends that are not written are not given here. * marks the point of attachment. Biotin = O=C1N[C@H]2[C@H](CS[C@H]2CCCCC(=O)*)N1

System: APC/C
Assay: Biotinylated peptide pull-down of purified APC/C, Western blot
Assay type: binding, Saccharomyces cerevisiae
Conditions: 20 μM biotinylated peptide, purified yeast APC/C, 1 h at 4 °C, streptavidin/Avidin beads, n = 3
Method: For APC/C purification, the APC/C which contain Cdc16-TAP-tag was isolated from 2 mL arrested yeast lysate by 120 μL IgG sepharose 6 Fast Flow beads (GE Healthcare Life Sciences) and incubate for 2 h at 4 °C on a rotating wheel. Beads were collected washed with 5 mL of APC/C wash buffer (200 mM Hepes pH8.0, 150 mM NaCl, 10% glycerol). Beads were resuspended in 150 μL of APC/C wash buffer contain 17.6 units of AcTEV protease (Invitrogen, Carlsbad, CA) at 4°C for 3 h with pipetting every 20 minutes. The purified APC/C was collected in the flow-through.
For APC/C binding assays, 20 μM biotinylated peptides or 20 μM peptides only as a negative control were incubated with purified APC/C and 100 μL APC/C wash buffer which contains phosphatase inhibitors (200 mM Hepes pH 8.0, 150 mM NaCl, 10% glycerol, 10 mM NaF, 1 mM NaVO4, 5 mM Na-pyrophosphate, 10 mM 2-glycerol phosphate) for 1 h at 4 °C. The mixtures were applied to 120 μL streptavidin beads (Dynabeads MyOne Streptavidin T1, Invitrogen) for 30 min at 4 °C with gentle pipetting every 10 min. Beads were washed with 1 mL of PBST buffer (Phosphate buffer saline and 0.1% Tween 20) three times SDS-PAGE protein sample was added directly. For APC/C binding competition experiments, the biotinylated peptide and 10-fold excess non-biotinylated peptides were added to purified APC/C at same time.
Free D-biotin in 10% DMSO was used for the control binding assays. For pre-coating APC/C with biotin, a modified APC/C purification was performed. 2 mL yeast lysate was incubated with 120 μL IgG Sepharose beads and additional 20.4 μM free biotin or non-biotin solvent as a positive control was added and samples were incubated for 2 h at 4 °C on a rotating wheel. Purified pre-coated APC/C was then removed from the IgG Sepharose following the standard purification procedure. 20 μM biotinylated peptides or 20 μM peptides as a negative control were incubated with pre-coated APC/C and 100 μL APC/C wash buffer which contain phosphatase inhibitors for 1 h at 4 °C. In addition, 20 μM biotinylated peptide was added and incubated with pre-coated APC/C in a non-biotin containing solvent as positive control. Pre-coated APC/C binding procedures were same as above. For pre-coating streptavidin beads with biotin, streptavidin beads were washed in the presence of 10.2 nmol/mL D-biotin in PBST buffer or non-biotin solvent as a positive control before use. Pre-coated streptavidin beads were incubated with purified APC/C-peptide complexes with an extra […] biotin for 30 minutes with gentle pipetting every 10 min at 4 °C.
Proteins were separated in SDS-PAGE gels and then were transferred to PVDF membrane. Blocking was performed by incubating samples in 20 mL PBST with 5% milk at 4 °C. Rabbit anti-tap (Thermo, CAB1001) was used as primary antibodies at a 1:1000 dilution and incubated for 2 hours at RT. Anti-rabbit HRP (Jackson, USA) was then used as secondary antibody at 1:5000 dilution and incubate for 1 hr at RT. Chemiluminescence signals were detected using an ImageQuant LAS 4000 (GE Healthcare Bio-Sciences, USA). For cell cycle timing Western blots anti-MYC and anti-Actin antibodies were employed (ABCAM, UK).

## DQ36-mut1: DQ36-mut1 where all 5 RILQY residues were changed to alanine AAAAA (Biotin-DMNKAAAAAMPEPPKCSSLRQKSYIMKKRTHYSYQQ)
  binding to APC/C (in words): maintained the ability to pull-down APC/C
